Measured values: US20250387481A1, “PRE-TREATED T CELLS FOR USE AS A MEDICAMENT” (STICHTING HET NEDERLANDS KANKER INSTITUUT-ANTONI VAN …, priority 2022, published 2025)

System: tumor-reactive T cells
Assay: Tumor recognition assay and viability of patient-derived tumor-reactive T cells
Format: cell-based, human
Settings: 10 nmol/L docetaxel
Protocol: Tumor-reactive patient T cells were generated by co-culturing PBMCs and autologous tumor organoids as described previously (Dekkers, J. F., et al. Nat Protoc, 2021. 16(4): p. 1936-1965; Cattaneo, C. M., et al. Nat Protoc, 2020. 15(1): p. 15-39). In brief, following incubation with 200 ng/ml IFNγ for 24 hr, patient tumor organoids were dissociated into single cell suspensions using TripLE Express. Tumor organoid cells were mixed with patient PBMCs ([…]) and […] were seeded in each well of a U-bottom 96-well plate pre-coated with 5 μg/ml αCD28 antibody. Co-culture medium consisted of RPMI 1640 supplemented with 2 mmol/L Ultraglutamine I, penicillin/streptomycin, 10% human AB serum, 150 U/ml rh-IL-2 and 20 μg/ml αPD1 blocking antibody (Merus, The Netherlands). Medium, IL-2 and αPD1 were refreshed every 2-3 days. PBMCs were harvested and re-stimulated every 7 days by re-plating with fresh tumor organoid cells. After two weeks of co-culture, PBMCs were harvested and used for downstream analysis or cryopreserved for later use.
Tumor-reactive PBMC were thawed in pre-warmed T cells medium and incubated for 15 minutes with 25 U/mL Benzonase. After washing, cells were re-suspended at 2−3×10^6 cells/ml in T cell medium and cultured overnight at 37° C. T cell medium consisted of RPMI 1640 supplemented with 2 mmol/L Ultraglutamine I, penicillin/streptomycin, 10% human AB serum and 150 U/ml rh-IL-2. The day after, PBMC were incubated with (or without) 10 nmol/L docetaxel for 48 h.
For evaluation of tumor reactivity, […] were re-stimulated with autologous tumor organoids or autologous healthy organoids (isolated from Geltrex for 48 h and stimulated with 200 ng/ml IFNγ for 24 h, as described in (Dekkers, J. F., et al. Nat Protoc, 2021. 16(4): p. 1936-1965; Cattaneo, C. M., et al. Nat Protoc, 2020. 15(1): p. 15-39; Voorwerk, L., et al. Nat Med, 2019. 25(6): p. 920-928) at a 2:1 effector: target ratio and seeded in αCD28 coated plates in the presence of 20 μg/ml αPD1 and co-cultured for 24 hours. At the end of the 24 h, 50 μl of the assay supernatant were taken on the side and used for the quantification of the secreted IFNγ. To this purpose, the Human IFN-γ Flex Set (BD bioscience) was used in accordance with the manufacturer's instructions. For the evaluation of CD137 expression, at the end of the 24 h, cells were washed twice in FACS buffer and stained with the following antibodies: αCD3 PerCPCy5.5, αCD4 FITC, αCD8 BV421, αCD137 APC, and near IR viability dye for 30 minutes at 4° C. in the dark. […] Cells were then washed twice with FACS buffer and recorded with a Becton Dickinson Fortessa or LSRII flow cytometer.

## CC(=O)O[C@@]12CO[C@@H]1C[C@H](O)[C@@]1(C)C(=O)[C@H](O)C3=C(C)[C@@H](OC(=O)[C@H](O)[C@@H](NC(=O)OC(C)(C)C)c4ccccc4)C[C@@](O)([C@@H](OC(=O)c4ccccc4)[C@H]21)C3(C)C [docetaxel]
  IFNγ secretion by T cells: did not enhance IFNγ secretion
  T cell viability: did not significantly alter T cell viability
  ability of T cells to recognize tumor organoids (CD137): did not increase
  expression of CD137, CD107 or PD1: did not increase
